What was measured:
[1] = Crystal size of rotor-stator exit stream observed under videomicroscope
[2] = Primary crystal/particle size by image analysis; format: physicochemical; settings: Example 8: 15% (w/w) glycine 14 mL/min, ethanol 190 mL/min, anhydrous ethanol quench
Description: The same procedure as in Example 7 was used, except the feed rate of the 15% (w/w) aqueous glycine solution was 14 mL/min and the feed rate of the anhydrous ethanol antisolvent was 190 mL/min. A quenching solution of anhydrous ethanol (>99%) was used.
Salicylic acid […] was dissolved in anhydrous ethanol (>99%) at a concentration of 24.8% (w/w). This solution was fed to the same apparatus as configured in Example 1. Water was co-fed as the antisolvent.

mean size of crystals ([1]; Example 1: 5% (w/w) aqueous glycine 190 mL/min, ethanol 190 mL/min, 10,000 rpm, quench 50% water 50% ethanol): 25 μm
mean size of crystals ([1]; Example 3: as Example 1, rotor-stator speed 5,000 rpm): 40 μm
mean size of crystals ([1]; Example 4: as Example 1, 15% (w/w) glycine solution): 40 μm
mean size of crystals ([1]; Example 5: as Example 1, 15% (w/w) glycine, 5,000 rpm): 70 μm
mean length of crystals ([1]; Example 6: as Example 1, 15% (w/w) glycine, 0 rpm): 300 μm
mean size of crystals ([1]; Example 7: 15% (w/w) glycine 21 mL/min, ethanol 190 mL/min): 6 μm
mean size of primary crystals [2]: 4.4 μm
Structure (SMILES): NCC(=O)O [glycine, Glycine]

Source: patent publication US20030152500A1, “Rotor-stator apparatus and process for the formation of particles” (priority 2001, published 2003)
